Reference: EP4251148B1, “HISTAMINE H3 RECEPTOR ANTAGONISTS/INVERSE AGONISTS FOR THE TREATMENT OF AUTISM SPECTRUM DISORDER” (Richter Gedeon Nyrt., priority 2020, dated 2022)

Key:
H3 receptor = target: T1, H3 receptor (Rattus norvegicus, UniProt Q9QYN8); assay: imetit-induced dipsogenia test; assay type: in vivo, Harlan Wistar rats; settings: rats, test compound p.o. 30 min before imetit 3 mg/kg sc.; reversal of water intake
T1 construct: from tissue; host or cells: whole living rat (central H3 receptors); animals from Janvier Elevage, France
T1 sequence (Q9QYN8 whole entry): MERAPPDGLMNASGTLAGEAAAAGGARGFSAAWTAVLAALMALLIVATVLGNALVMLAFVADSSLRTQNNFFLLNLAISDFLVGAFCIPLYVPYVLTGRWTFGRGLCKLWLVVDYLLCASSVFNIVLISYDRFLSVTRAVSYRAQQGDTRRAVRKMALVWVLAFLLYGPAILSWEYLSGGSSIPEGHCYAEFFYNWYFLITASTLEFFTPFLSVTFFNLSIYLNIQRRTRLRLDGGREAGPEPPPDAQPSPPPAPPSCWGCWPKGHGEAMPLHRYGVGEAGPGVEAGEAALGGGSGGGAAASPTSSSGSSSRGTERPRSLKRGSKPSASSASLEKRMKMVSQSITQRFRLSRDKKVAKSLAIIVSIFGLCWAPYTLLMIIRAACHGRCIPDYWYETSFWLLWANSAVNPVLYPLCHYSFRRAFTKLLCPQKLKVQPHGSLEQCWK
Text: Brain penetrant histamine H3 receptor agonists such as R-α-methylhistamine and imetit cause an acute increase in water intake in rodents (Galici et al., 2009; Barbier et al., 2007; Clapham and Kilpatrick, 1993; Garbarg et al., 1993). This dipsogenic effect is specific to H3 receptor activation as it can be antagonized selectively by centrally acting H3 antagonists (e.g., thioperamide or clobenpropit) and not by H1 or H2 […] such as mepyramide or loxtidine, respectively (Fox et al., 2002; Clapham and Kilpatrick, 1992). Therefore, the inhibition of H3 receptor-mediated dipsogenia can be used as a central pharmacodynamic measure of in vivo H3 receptor function following peripheral administration of antagonist/inverse agonist compounds (Raddatz et al., 2012; Medhurst et al., 2007; Fox et al., 2005).
The protocol has been derived from Clapham and Kilpatrick (1992) with modifications. Group-housed adult male Harlan Wistar rats (Janvier Elevage, France) (340-500 g at the time of testing) were used as experimental animals. Rats were repeatedly used for testing for a maximum of four to five times with one week of wash-out period between testing days. Before commencing drug-testing sessions, animals were first habituated to the test procedure without receiving any drug treatment. On habituation days animals were administered 5 mL/kg distilled water p.o. and 30 min later 1 mL/kg physiological saline was injected sc., while drinking water was withdrawn from the home-cages. After a further 30 min, rats were isolated in test cages, where they had access to tap water, but not to chow. Water consumption was measured 30 min later. Rats that had drunken at least 0.2 g water during this period were randomized into treatment groups. On experimental days animals were administered the test compound or vehicle p.o. and 30 min later 3 mg/kg of the H3 receptor agonist imetit was injected sc. Investigational compounds were given in a volume of 5 mL/kg. Imetit dihydrobromide (Tocris, UK) was dissolved in physiological saline and administered in a volume of 1 mL/kg. Directly after treatment with imetit, drinking water was withdrawn from the home-cages. After an additional 30 min, rats were isolated to test cages, where they had access to tap water, but not to chow. Water consumption was measured after a free drinking period of 10 min.
Means ± S.E. of water intake (in grams) were calculated for each group. Significance of drug effect was determined by ANOVA followed by the post hoc Duncan-test. Significance was considered at the p<0.05 level. The percental reversal of imetit-induced water intake was calculated from the group means using the formula as follows, percental reversal of dipsogenia equals 1-((IME-DRUG)/(IME-VEH))·100, where IME is water intake of the p.o. vehicle plus imetit group, VEH is water intake of p.o. vehicle plus sc. vehicle group, and DRUG is water intake of p.o. test compound plus sc. […] group. Percental reversal was plotted for each dose and an ED50 value was calculated from the fitted curve (reversal values greater than 100% were taken into account as 100% reversal) based on linear regression.

[1] = test system: prenatally valproate treated rats; assay: tactile sensitivity measurement with von Frey filaments in the prenatal valproate model; assay type: in vivo, Wistar rats; settings: p.o., 60 min after treatment, 18-day-old rats
Text: The prenatal valproate (VPA) model has excellent construct and face validity, therefore it is a widely accepted disease model of ASD. With respect to face validity, prenatal VPA exposure may lead to socio-communicational defects, excessive repetitive behaviors and increased sensitivity of various modalities (e.g., touch). […] Compounds that produced efficacy signals in ASD subjects comprise eg., oxytocin (Andari et al., PNAS 2010, 107:4389-4394).
In this method, time-mated female Wistar rats are administered a single dose of VPA (300 mg/kg, i.p.) on gestational day 12.5. Offspring are housed according to standard laboratory conditions until time of behavioral testing. Animals are housed in groups of 4 in conventional cages and maintained at 22-24°C on a standard 12-hour light/dark cycle, with food and water available ad libitum. […]
During the measurement with von Frey filaments, 18-day-old rats were placed separately in small cages (dimensions: 7 x 7 x 9 cm) with mesh floors. […] First, a baseline sensitivity value was determined, and animals were randomized into treatment groups based on this baseline. Sixty min after p.o. treatment sensitivity was measured again. A 50% sensitivity threshold was calculated based on the value of the last measured fiber thickness and the application pattern of the various filament thicknesses. […]

BALB/C mice = assay: three-chamber assay, social novelty session, BALB/C mouse model of ASD; assay type: in vivo; settings: 10 mg/kg (top dose); ** p<0.01 vs. familiar
Text: The BALB/c mouse is a low-sociability, inbred line that is accepted as an idiopathic model of ASD (Brodkin, 2007; Burket et al., 2020; Ellegood, 2015; Jacome et al., 2011). Although the precise background of behavior is not known, the line carries a loss of function single nucleotide polymorphism in the tryptophane hydroxylase gene causing a 50% reduction in enzyme function (Russo et al., 2018). […] This model also has some predictive validity as some compounds that produced efficacy signals in humans have also been active in BALB/c mice such as D-cycloserine (Deutsch et al., 2012) or oxytocin (Teng et al., 2013).
The three-chamber assay was performed in an 8-channel LABORAS™ sociability system (Metris b.v., Hoofdorp, The Netherlands). […] Consequently, movements of target mice were not recorded. Just like in the classical LABORASTM set-up (Van de Weerd et al., 2001; Quinn et al., 2003), mechanical vibration generated by movement of the animals was transformed to electrical signals that were analyzed and the trajectory of the animals was determined. […]
During the behavioral assays, test mice were habituated first to the center compartment of the three-chamber apparatus with the guillotine doors closed for 2 min. […] During this test session the time spent in the center chamber as well as with direct contact or no contact on the social versus non-social side was recorded. […]

[2] = test system: prenatal valproate model of ASD in mice; settings: 3 mg/kg intraperitoneally; cited from earlier work
monoamine oxidase A = settings: human and rat enzyme; cited from earlier work
monoamine oxidase B = settings: human and rat enzyme; slight preference for monoamine oxidase B; cited from earlier work
[3] = 3 mg/kg intraperitoneally; cited from earlier work

| SMILES | imetit-induced dipsogenia ED50 (H3 receptor) | also measured |
| --- | --- | --- |
| CCNC(=O)C1CC(F)(c2ccc(CN3CCCC3)c(F)c2)C1 (stereo not drawn) [PF-03654746, trans-N-Ethyl-3-fluoro-3-[3-fluoro-4-(1pyrrolidinylmethyl)phenyl]cyclobutanecarboxamide] | 0.78 mg/kg p.o. | – |
| C[C@@H]1CCCN1CCc1cc2cc(-c3ccc(C#N)cc3)ccc2o1 [ABT-239, 4-(2-{2-[(2R)-2-Methylpyrrolidin-1-yl]ethyl}-benzofuran-5-vl)benzonitrile] | 0.26 mg/kg p.o. | – |
| O=C(c1ccc(CN2CCOCC2)cc1)N1CCN(C2CC2)CC1 [bavisant, (4-cyclopropylpiperazin-1-yl)-[4-(morpholin-4-ylmethyl)phenyl]methanone] | < 0.3 mg/kg p.o. | – |
| Cn1nc(N2CCC(OC(=O)N3CCN(C4CCC4)CC3)CC2)ccc1=O [LML-134, 1-(1-methyl-6-oxo-1,6-dihydropyridazin-3-yl)piperidin-4-yl 4-cyclobutylpiperazine-1-carboxylate] | < 1 mg/kg p.o. | tactile hypersensitivity (threshold level of paw withdrawal to von Frey filaments) ([1]; 10 mg/kg (top dose), ++ p<0.01 vs. VPA): reversed this tactile hypersensitivity; social novelty (time spent with investigation of the novel animal) (BALB/C mice): improve social novelty |
| O=C(CN1CCOCC1)Nc1ccc(OC2CCN(C3CCC3)CC2)cc1 [samelisant, N-{4-[(1-cyclobutylpiperidin-4-yl)oxy]phenyl}-2-(morpholin-4-yl)acetamide] | < 1 mg/kg p.o. | – |
| CNC(=O)c1ccc(Oc2ccc3c(c2)CCN(C2CCC2)CC3)nc1 [GSK-189254, 6-[(3-cyclobutyl-1,2,4,5-tetrahydro-3-benzazepin-7-yl)oxy]-N-methylpyridine-3-carboxamide] | 0.14 mg/kg p.o. | tactile hypersensitivity (threshold level of paw withdrawal to von Frey filaments) ([1]; 0.1 mg/kg (middle dose), + p<0.05 vs. VPA, inverted U-shaped dose-response curve): reversed this tactile hypersensitivity |
| Clc1ccc(CCCOCCCN2CCCCC2)cc1 [pitolisant, 1-[3-[3-(4-chlorophenyl)propoxy]propyl]piperidine] | 11 mg/kg p.o. | – |
| O=C(c1ccc(OCCCc2cnc[nH]2)cc1)C1CC1 [ciproxifan] | – | social deficits and excessive repetitive behavior [2]: improved social deficits and excessive repetitive behavior; inhibition of monoamine oxidase A (monoamine oxidase A): micromolar concentration range; inhibition of monoamine oxidase B (monoamine oxidase B): micromolar concentration range; plasma exposures [3]: micromolar range |
